Structures are written as SMILES.

Results on 13 molecules are retold here after patent publication US20230322785A1, “ADENOSINE A2A AND A2B RECEPTOR DUAL ANTAGONISTS FOR IMMUNO-ONCOLOGY” (Merck Sharp & Dohme LLC, priority 2020, published 2023).

In this experiment the target is T1, human A2A adenosine receptor (Homo sapiens, UniProt P29274).
T1 construct: expressed in transfected cells; host or cells: HEK293 or CHO cells
T1 sequence (P29274 whole entry): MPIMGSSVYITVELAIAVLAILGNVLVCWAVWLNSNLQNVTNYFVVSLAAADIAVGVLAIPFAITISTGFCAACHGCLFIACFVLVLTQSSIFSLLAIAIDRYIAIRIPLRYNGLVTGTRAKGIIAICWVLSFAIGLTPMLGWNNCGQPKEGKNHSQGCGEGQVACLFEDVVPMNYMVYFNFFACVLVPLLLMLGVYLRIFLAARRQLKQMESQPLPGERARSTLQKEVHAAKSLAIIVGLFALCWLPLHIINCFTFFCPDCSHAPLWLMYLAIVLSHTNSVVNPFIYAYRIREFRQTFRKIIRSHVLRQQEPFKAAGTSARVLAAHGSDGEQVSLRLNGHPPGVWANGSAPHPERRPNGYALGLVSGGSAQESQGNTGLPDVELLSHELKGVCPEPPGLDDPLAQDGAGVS
The experiment is described as follows: A2A binding affinity, Method (B): scintillation proximity assay (SPA) with [3H]SCH58261. The note with it: membranes of HEK293 or CHO cells expressing the human receptor. The method in brief:
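Membranes from HEK293 or CHO cells expressing the receptor were pretreated with 20 µg/mL adenosine deaminase for 15 min, then bound to WGA SPA beads. [3H]SCH58261 was added at 1.25 nM in Ca/Mg-free DPBS with 10 mM MgCl2, incubated 1 h at RT, then settled 1 h. Non-specific binding used 1 µM CGS 15943. IC50 came from 4-parameter logistic fits.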
`COc1cccc2c1nc(N)n1nc(CN(Cc3ccc(C(F)(F)F)cc3)C(=O)NC(C)C)nc21` [Example 20.2, 1-((5-amino-7-methoxy-[1,2,4]triazolo[1,5-c]quinazolin-2-yl)methyl)-3-isopropyl-1-(4-(trifluoromethyl)benzyl)urea] showed an IC50 of 50.7 nM.
With `COc1cccc2c1nc(N)n1nc(CN(Cc3ccc(OC(F)(F)F)cc3)C(=O)NC(C)C)nc21` [Example 20.3, 1-((5-amino-7-methoxy-[1,2,4]triazolo[1,5-c]quinazolin-2-yl)methyl)-3-isopropyl-1-(4-(trifluoromethoxy)benzyl)urea] the figure was 22.6 nM; with `COc1cccc2c1nc(N)n1nc(CNC(=O)NCc3ccc(Cl)cc3)nc21` [Example 20.4, 1-((5-amino-7-methoxy-[1,2,4]triazolo[1,5-c]quinazolin-2-yl)methyl)-3-(4-chlorobenzyl)urea], 5.7 nM; with `C=CCN(Cc1ccc(C(F)(F)F)cc1)Cc1nc2c3cccc(OC)c3nc(N)n2n1` [Example 21.1, 2-((allyl(4-(trifluoromethyl)benzyl)amino)methyl)-7-methoxy-[1,2,4]triazolo[1,5-c]quinazolin-5-amine], 11.1 nM.
`COc1cccc2c1nc(N)n1nc(CCNCc3ccc(C(F)(F)F)cc3)nc21` [Example 22.3, 7-methoxy-2-(2-((4-(trifluoromethyl)benzyl)amino)ethyl)-[1,2,4]triazolo[1,5-c]quinazolin-5-amine] had a half-inhibitory concentration (IC50) of 16.7 nM.
Then `COc1cccc2c1nc(N)n1nc(CCN[C@H](C)c3ccc(C(F)(F)F)cc3)nc21` [Example 22.4, (R)-7-methoxy-2-(2-((1-(4-(trifluoromethyl)phenyl)ethyl)amino)ethyl)-[1,2,4]triazolo[1,5-c]quinazolin-5-amine], with 15.9 nM.
Then `COc1cccc2c1nc(N)n1nc(CCN(C)Cc3ccc(C(F)(F)F)cc3)nc21` [Example 22.5, 7-methoxy-2-(2-(methyl(4-(trifluoromethyl)benzyl)amino)ethyl)-[1,2,4]triazolo[1,5-c]quinazolin-5-amine], with 4.1 nM; and `COc1cccc2c1nc(N)n1nc(CCNCc3ccccc3C(F)(F)F)nc21` [Example 22.6, 7-methoxy-2-(2-((2-(trifluoromethyl)benzyl)amino)ethyl)-[1,2,4]triazolo[1,5-c]quinazolin-5-amine], with 9.7 nM.
With `COc1cccc2c1nc(N)n1nc(CCN[C@@H](C)c3ccc(C(F)(F)F)cc3)nc21` [Example 22.7, (S)-7-methoxy-2-(2-((1-(4-(trifluoromethyl)phenyl)ethyl)amino)ethyl)-[1,2,4]triazolo[1,5-c]quinazolin-5-amine] the figure was 27.3 nM.
Molecule `COc1cccc2c1nc(N)n1nc(CCNCC(F)(F)C(F)(F)F)nc21` [Example 22.8, 7-methoxy-2-(2-((2,2,3,3,3-pentafluoropropyl)amino)ethyl)-[1,2,4]triazolo[1,5-c] quinazolin-5-amine] returned an IC50 of 10.9 nM.
With `COc1cccc2c1nc(N)n1nc(CCNCC(C)(F)F)nc21` [Example 23.3, 2-(2-((2,2-difluoropropyl)amino)ethyl)-7-methoxy-[1,2,4]triazolo[1,5-c]quinazolin-5-amine], the IC50 worked out at 12.2 nM.
For `COc1cccc2c1nc(N)n1nc(CCN[C@H](C)C(F)(F)F)nc21` [Example 23.4, (R)-7-methoxy-2-(2-((1,1,1-trifluoropropan-2-yl)amino)ethyl)-[1,2,4]triazolo[1,5-c]quinazolin-5-amine], the 50% inhibitory concentration (IC50) stood at 5.8 nM.
Then `COc1cccc2c1nc(N)n1nc(C[C@@H](C)NCc3oc(C)nc3C)nc21` [Example 24.3, (R)-2-(2-(((2,4-dimethyloxazol-5-yl)methyl)amino)propyl)-7-methoxy-[1,2,4]triazolo[1,5-c]quinazolin-5-amine], with 11.1 nM.
